Source: PMC9030254, “Target Hopping from Protein Kinases to PXR: Identification of Small-Molecule Protein Kinase Inhibitors as Selective Modulators of Pregnane X Receptor from TüKIC Library” (Cells, 2022)

How the values were obtained:
Assay in all cases: Kinase profiling
Type in all cases: biochemical
p38gamma = target: T1, p38gamma (Homo sapiens, UniProt P53778)
T1 construct: purchased ProQinase (Freiburg, Germany)
T1 sequence (P53778 1-367): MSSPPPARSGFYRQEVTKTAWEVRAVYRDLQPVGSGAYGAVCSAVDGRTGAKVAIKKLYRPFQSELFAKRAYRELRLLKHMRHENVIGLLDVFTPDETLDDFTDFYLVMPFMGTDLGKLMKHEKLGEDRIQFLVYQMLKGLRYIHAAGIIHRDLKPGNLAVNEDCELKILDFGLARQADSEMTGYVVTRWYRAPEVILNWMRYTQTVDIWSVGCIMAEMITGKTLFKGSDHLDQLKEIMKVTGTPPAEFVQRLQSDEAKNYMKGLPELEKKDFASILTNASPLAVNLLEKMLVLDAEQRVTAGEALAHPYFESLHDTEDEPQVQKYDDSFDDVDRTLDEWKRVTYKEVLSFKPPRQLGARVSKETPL
Description: (§1) The analysis was performed by ProQinase (Freiburg, Germany).

SGK3 = target: T2, SGK3 (Homo sapiens, UniProt Q96BR1)
T2 construct: purchased ProQinase (Freiburg, Germany)
T2 sequence (Q96BR1 1-496): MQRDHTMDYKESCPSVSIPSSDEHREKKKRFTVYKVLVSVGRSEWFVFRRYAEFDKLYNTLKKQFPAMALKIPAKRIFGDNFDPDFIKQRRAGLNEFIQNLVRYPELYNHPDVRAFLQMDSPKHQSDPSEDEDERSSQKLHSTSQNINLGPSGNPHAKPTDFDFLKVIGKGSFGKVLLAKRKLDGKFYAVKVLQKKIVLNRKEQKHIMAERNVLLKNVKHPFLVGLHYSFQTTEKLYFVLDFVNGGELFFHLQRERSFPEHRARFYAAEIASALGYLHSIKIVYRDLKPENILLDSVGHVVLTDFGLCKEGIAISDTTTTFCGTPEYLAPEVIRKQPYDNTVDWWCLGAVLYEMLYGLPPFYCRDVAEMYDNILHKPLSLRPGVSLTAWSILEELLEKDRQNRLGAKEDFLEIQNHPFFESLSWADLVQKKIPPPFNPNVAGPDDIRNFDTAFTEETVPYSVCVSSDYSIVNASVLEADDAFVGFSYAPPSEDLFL
Description: as §1

TIE2 = target: T3, TIE2 (Homo sapiens, UniProt Q02763)
T3 construct: purchased ProQinase (Freiburg, Germany)
Description: as §1

MARK3 = target: T4, MARK3 (Homo sapiens, UniProt P27448)
T4 construct: purchased ProQinase (Freiburg, Germany)
Description: as §1

ITK = target: T5, ITK (Homo sapiens, UniProt Q08881)
T5 construct: purchased ProQinase (Freiburg, Germany)
T5 sequence (Q08881 1-620): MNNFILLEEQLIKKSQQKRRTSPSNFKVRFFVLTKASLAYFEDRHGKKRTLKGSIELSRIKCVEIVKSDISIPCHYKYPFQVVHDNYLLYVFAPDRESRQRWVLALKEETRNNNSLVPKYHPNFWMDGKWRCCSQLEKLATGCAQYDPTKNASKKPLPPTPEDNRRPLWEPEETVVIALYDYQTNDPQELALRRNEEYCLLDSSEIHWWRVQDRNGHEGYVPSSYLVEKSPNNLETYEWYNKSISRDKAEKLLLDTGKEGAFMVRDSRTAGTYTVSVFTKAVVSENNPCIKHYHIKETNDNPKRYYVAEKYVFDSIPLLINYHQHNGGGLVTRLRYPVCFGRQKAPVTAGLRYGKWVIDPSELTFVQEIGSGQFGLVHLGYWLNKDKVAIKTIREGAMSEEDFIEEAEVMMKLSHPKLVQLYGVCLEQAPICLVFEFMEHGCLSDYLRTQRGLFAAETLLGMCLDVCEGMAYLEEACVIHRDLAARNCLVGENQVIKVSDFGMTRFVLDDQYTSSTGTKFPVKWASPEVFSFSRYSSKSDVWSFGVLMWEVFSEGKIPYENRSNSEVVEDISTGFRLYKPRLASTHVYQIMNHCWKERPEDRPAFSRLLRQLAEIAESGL
Description: as §1

EPHB1 = target: T6, EPHB1 (Homo sapiens, UniProt P54762)
T6 construct: purchased ProQinase (Freiburg, Germany)
T6 sequence (P54762 18-984): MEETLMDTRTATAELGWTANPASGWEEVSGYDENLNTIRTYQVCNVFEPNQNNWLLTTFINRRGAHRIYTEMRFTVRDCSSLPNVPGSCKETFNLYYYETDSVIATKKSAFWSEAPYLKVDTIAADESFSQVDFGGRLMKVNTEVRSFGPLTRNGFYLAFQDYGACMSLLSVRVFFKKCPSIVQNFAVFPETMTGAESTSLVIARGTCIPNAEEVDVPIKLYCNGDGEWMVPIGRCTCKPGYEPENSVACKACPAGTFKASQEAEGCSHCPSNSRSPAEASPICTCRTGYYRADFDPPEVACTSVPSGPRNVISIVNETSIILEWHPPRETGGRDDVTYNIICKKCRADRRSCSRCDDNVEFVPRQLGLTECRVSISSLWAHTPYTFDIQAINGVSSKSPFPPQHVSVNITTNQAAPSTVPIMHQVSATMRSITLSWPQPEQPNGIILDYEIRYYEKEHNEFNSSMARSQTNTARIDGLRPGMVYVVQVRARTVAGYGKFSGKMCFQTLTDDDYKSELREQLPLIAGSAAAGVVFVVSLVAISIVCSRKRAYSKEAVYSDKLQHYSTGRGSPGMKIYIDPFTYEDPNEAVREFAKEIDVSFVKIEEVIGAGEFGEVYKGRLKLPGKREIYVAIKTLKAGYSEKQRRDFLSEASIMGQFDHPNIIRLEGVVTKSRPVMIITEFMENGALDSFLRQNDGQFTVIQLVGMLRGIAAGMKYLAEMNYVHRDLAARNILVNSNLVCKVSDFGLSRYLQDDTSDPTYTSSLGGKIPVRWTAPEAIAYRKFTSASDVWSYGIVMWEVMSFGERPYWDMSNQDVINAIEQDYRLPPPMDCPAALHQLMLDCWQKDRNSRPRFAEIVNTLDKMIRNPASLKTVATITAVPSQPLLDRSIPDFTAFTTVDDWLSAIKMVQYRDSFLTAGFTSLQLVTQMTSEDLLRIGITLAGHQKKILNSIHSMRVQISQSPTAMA
Description: as §1

LYN = target: T7, LYN (Homo sapiens, UniProt P07948)
T7 construct: purchased ProQinase (Freiburg, Germany)
Description: as §1

T4 sequence (P27448 whole entry): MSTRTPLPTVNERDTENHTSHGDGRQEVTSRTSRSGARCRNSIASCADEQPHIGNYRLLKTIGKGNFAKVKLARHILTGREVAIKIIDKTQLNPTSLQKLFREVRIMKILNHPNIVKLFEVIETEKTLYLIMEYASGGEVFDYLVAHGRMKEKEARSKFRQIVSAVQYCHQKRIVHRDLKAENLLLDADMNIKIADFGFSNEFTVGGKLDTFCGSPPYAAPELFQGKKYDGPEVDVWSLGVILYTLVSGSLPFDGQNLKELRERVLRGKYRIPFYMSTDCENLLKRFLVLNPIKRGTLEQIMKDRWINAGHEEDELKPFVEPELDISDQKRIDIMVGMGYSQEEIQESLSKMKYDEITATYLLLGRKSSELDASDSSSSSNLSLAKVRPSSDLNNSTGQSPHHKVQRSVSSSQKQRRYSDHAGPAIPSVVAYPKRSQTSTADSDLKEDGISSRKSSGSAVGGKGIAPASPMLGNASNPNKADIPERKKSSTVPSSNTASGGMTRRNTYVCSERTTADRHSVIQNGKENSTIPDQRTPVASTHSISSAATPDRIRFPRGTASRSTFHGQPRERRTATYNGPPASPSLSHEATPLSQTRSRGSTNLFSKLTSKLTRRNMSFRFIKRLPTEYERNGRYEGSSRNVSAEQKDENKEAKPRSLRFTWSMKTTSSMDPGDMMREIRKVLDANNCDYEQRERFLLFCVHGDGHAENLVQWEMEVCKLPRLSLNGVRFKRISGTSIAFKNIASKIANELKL
T3 sequence (Q02763 23-1124): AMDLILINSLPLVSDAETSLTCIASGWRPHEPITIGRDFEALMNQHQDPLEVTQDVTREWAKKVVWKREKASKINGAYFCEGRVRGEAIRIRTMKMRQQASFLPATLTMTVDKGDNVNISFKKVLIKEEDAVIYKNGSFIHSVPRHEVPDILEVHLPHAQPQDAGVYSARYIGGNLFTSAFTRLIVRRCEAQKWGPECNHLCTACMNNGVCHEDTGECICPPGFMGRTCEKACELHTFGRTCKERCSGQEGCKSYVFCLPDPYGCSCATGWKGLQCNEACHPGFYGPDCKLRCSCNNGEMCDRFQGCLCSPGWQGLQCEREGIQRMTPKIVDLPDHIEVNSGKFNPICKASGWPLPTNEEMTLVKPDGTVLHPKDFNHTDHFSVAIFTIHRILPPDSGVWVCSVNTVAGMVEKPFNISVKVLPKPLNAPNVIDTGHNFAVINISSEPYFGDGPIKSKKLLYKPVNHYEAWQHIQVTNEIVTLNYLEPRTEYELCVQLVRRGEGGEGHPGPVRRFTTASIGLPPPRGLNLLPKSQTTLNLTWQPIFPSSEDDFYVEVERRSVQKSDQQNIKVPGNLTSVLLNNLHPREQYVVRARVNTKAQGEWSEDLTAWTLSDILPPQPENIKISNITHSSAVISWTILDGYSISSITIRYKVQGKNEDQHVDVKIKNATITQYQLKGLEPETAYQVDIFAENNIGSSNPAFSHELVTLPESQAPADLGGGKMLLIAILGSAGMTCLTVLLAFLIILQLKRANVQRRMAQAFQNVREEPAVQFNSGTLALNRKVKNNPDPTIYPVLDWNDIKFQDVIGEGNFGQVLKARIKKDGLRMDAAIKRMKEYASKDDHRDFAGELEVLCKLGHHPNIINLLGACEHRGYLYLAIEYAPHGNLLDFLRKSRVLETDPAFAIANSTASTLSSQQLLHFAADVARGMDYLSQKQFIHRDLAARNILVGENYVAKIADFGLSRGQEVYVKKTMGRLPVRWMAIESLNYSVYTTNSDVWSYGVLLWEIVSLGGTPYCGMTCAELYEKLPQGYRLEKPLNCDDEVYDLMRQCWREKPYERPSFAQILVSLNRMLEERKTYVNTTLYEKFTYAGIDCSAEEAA
T7 sequence (P07948 whole entry): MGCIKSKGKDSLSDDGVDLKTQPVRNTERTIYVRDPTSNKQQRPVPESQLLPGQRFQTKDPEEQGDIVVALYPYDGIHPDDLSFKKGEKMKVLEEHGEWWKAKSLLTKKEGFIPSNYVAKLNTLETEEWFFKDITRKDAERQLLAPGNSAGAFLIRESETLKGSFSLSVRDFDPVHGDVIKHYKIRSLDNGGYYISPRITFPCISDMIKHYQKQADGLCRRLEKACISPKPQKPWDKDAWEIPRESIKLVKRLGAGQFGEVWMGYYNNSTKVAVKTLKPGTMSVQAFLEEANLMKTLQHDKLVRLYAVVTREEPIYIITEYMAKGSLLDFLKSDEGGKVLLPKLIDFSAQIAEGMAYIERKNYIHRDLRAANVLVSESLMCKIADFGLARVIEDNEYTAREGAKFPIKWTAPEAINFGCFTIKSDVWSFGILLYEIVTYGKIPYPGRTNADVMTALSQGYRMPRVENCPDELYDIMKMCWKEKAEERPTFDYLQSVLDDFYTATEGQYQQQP

Structure (SMILES)	Residual activity (p38gamma; 1.0E-05 M)	Residual activity (p38gamma; 1.0E-06 M)	Residual activity (SGK3; 1.0E-05 M)	Residual activity (SGK3; 1.0E-06 M)	Residual activity (TIE2; 1.0E-05 M)	Residual activity (TIE2; 1.0E-06 M)	Residual activity (MARK3; 1.0E-05 M)	Residual activity (MARK3; 1.0E-06 M)	Residual activity (ITK; 1.0E-05 M)	Residual activity (ITK; 1.0E-06 M)	Residual activity (EPHB1; 1.0E-05 M)	Residual activity (EPHB1; 1.0E-06 M)	Residual activity (LYN; 1.0E-05 M)	Residual activity (LYN; 1.0E-06 M)
O=C(Nc1ccc(F)c(Nc2ccc3c(c2)CCCCC3=O)c1)c1cccc(F)c1 [Compound 109]	52 % of control	88 % of control	97 % of control	96 % of control	78 % of control	87 % of control	105 % of control	102 % of control	82 % of control	93 % of control	95 % of control	113 % of control	88 % of control	104 % of control
O=C(Cc1ccccc1)Nc1ccc(F)c(Nc2ccc3c(c2)CCCCC3=O)c1 [Compound 100]	84 % of control	93 % of control	98 % of control	103 % of control	66 % of control	96 % of control	103 % of control	106 % of control	75 % of control	94 % of control	103 % of control	113 % of control	95 % of control	96 % of control
